The target in assay [1] is T1, WT MelBSt (Salmonella typhimurium, UniProt P30878).
T1 construct: Cys scanning mutagenesis for the full-length MelBSt; His10 (C); made in house; host or cells: E. coli DW2
Kind of assay: biochemical. The class given is binding. The following applies: for effect on Trp→D2G FRET of D2G-bound protein (displacement): added to D2G-bound WT MelBSt; for IC50: IC50 of galactoside displacement on bound D2G, DDMB, 10 μM D2G, value could be over-estimated. How it is done:
(§1) Fig. 1 Functional characterizations. a [^3H] Melibiose transport time course with intact cells. […] Inset, melibiose fermentation assay. Transformants with DW2 strain were plated on MacConkey agar plates containing 30 mM melibiose as the sole carbohydrate source and pH sensor neutral red, and incubated at 37 °C for 16–18 h before imaging. Number of tests = 3, from different batch of cells or duplicate measurements from same batch of sample. b Ligand binding by Trp→dansyl galactoside (D^2G) FRET assay. Purified proteins at 1 μM concentration in 20 mM Tris-HCl, pH 7.5, 100 mM CholCl, 10% glycerol, and 0.03% UDM were subjected to steady-state fluorescence measurements as described in Methods. On the time-trace, 1.8 μL of 1 mM D^2G at 10 μM was added into 180 μL of protein solutions at 1-min point, followed by supplying 10 μL of 5 mM DDMB or 5 mM α-NPG to displace the bound D^2G. For testing Na^+ or Li^+ binding, they are added into the solution before displacement with the second sugar. The structure of DDMB or α-NPG is shown in a chair form, and the carbon positions are labeled. Glycosidic bonds are indicated by arrows. Both are α-galactosides containing a substituent at the anomeric carbon-1. The data were from duplicate measurements.
(§2) Steady-state fluorescence measurements were performed with an AMINCO-Bowman series 2 spectrometer with purified MelBSt at 1 μM in 20 mM Tris-HCl, pH 7.5, 100 mM CholCl, 10% glycerol, 0.03% UDM. Using an excitation wavelength at 290 nm, the emission intensity was recorded at 490 nm. On a time-trace, D^2G, NaCl or LiCl, then DDMB or α-NPG, were sequentially added into the protein solutions at a 1 min-interval. […] An identical volume of water was used for the control. The decrease in intensity after each addition of DDMB or α-NPG was corrected by the dilution effect and plotted as a function of the accumulated α-NPG concentrations or estimated DDMB concentrations. The 50% inhibitory concentration (IC50) was determined by fitting a hyperbolic function to the data (OriginPro 2020b). The final concentration of each detergent is estimated to be 234 μM, which is less than their CMC value for (DDMB, 295 μM).
(§3) Supplementary Figure 2. Determination of DDMB binding affinity to MelBSt. (a) Titration with DDMB or a-NPG. MelBSt in 20 mM Tris-HCl, pH 7.5, 100 mM CholCl, 10% glycerol, 0.03% UDM without (1) or with 100 mM NaCl (2) were added with D2G at 10 μM at 1-min time point as indicated by triangle symbols on the Trp®dansyl FRET time trace. Starting at the 2-min of time point, DDMB or a-NPG solution was supplemented consecutively at a 1-min interval into MelBSt solution till no change in fluorescence intensity reached as indicated in star symbols. DDM and UDM were used as negative controls. 1% DDM or UDM was titrated into the mixture, The […]
(§4) At 2-min time point, additions of galactosides were colored in pink, a-NPG in yellow, UDM in blue, DDM in light blue, water in gray traces, respectively. (b) IC50 determination. The intensity decrease at each titration were corrected by the dilution effect, and plotted as a function of the accumulated DDMB or α-NPG concentration. The 50% inhibitory concentration (IC50) was determined by fitting the data to a hyperbolic function (OriginPro 2020b). Results are presented in […]
(§5) (1 picture or pasted object on this page, not shown here)

The target in the next assay is T2, D59A MelBSt (Salmonella typhimurium, UniProt P30878, D59A).
T2 construct: Cys scanning mutagenesis for the full-length MelBSt; His10 (C); made in house; host or cells: E. coli DW2
T2 sequence (P30878 whole entry D59A): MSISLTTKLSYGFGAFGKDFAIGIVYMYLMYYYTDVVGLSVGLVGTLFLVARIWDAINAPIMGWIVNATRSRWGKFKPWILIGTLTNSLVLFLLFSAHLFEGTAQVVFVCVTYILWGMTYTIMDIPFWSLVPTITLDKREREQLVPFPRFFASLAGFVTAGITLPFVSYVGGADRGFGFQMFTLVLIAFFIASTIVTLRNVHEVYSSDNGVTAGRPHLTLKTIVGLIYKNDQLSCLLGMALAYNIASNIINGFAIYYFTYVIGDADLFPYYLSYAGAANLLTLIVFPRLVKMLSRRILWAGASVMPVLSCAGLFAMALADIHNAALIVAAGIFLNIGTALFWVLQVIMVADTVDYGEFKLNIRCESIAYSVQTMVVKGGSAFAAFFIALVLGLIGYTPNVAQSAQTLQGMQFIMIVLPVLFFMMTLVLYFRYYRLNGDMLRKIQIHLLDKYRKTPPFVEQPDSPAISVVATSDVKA
Briefly: Trp→dansyl galactoside (D2G) FRET time trace (D59A). The class given is binding. The note with it: no Na+ or Li+ stimulation. As for the experimental part:
Fig. 1 Functional characterizations. a [^3H] Melibiose transport time course with intact cells. E. coli DW2 strain (melB^−, lacZ^−Y^−) expressed with the WT, D59C, or D59A MelBSt mutants were subjected to [^3H]melibiose active transport assay at 0.4 mM and 10 mCi/mmol in the presence of 20 mM or 100 mM NaCl or LiCl by a fast filtration method. Inset, melibiose fermentation assay. Transformants with DW2 strain were plated on MacConkey agar plates containing 30 mM melibiose as the sole carbohydrate source and pH sensor neutral red, and incubated at 37 °C for 16–18 h before imaging. Number of tests = 3, from different batch of cells or duplicate measurements from same batch of sample. b Ligand binding by Trp→dansyl galactoside (D^2G) FRET assay. Purified proteins at 1 μM concentration in 20 mM Tris-HCl, pH 7.5, 100 mM CholCl, 10% glycerol, and 0.03% UDM were subjected to steady-state fluorescence measurements as described in Methods. […]
Steady-state fluorescence measurements were performed with an AMINCO-Bowman series 2 spectrometer with purified MelBSt at 1 μM in 20 mM Tris-HCl, pH 7.5, 100 mM CholCl, 10% glycerol, 0.03% UDM. Using an excitation wavelength at 290 nm, the emission intensity was recorded at 490 nm. […]

Assay [2] has as its target T3, D59C MelBSt (Salmonella typhimurium, UniProt P30878, D59C).
T3 construct: Cys scanning mutagenesis for the full-length MelBSt; His10 (C); made in house; host or cells: E. coli DW2
Briefly: Trp→dansyl galactoside (D2G) FRET time trace and IC50 of D2G displacement (D59C). It counts as binding. The note with it: IC50 of galactoside displacement on bound D2G, DDMB, 10 μM D2G, value could be over-estimated. As for the experimental part:
as §1, §2, §3, §4, §5

For assay [3], the target named is T1, WT MelBSt. Kind of assay: biochemical. It counts as binding. How it is done: (§6) All ITC ligand-binding assays were performed with the TA Instruments (Nano-ITC device) at 25 °C. In a typical experiment, the titrand (MelBSt) in the ITC sample cell was titrated with the specified titrant (placed in the Syringe) by an incremental injection of 2-µL aliquots at an interval of 300 s at a constant stirring rate of 250 r.p.m. All samples were degassed using a TA Instruments Degassing Station (model 6326) for 15 min prior to the titration. Data processing was performed with the NanoAnalyze (version 3.6.0 software) provided with the ITC equipment. The normalized heat changes were subtracted from the heat of dilution elicited by last few injections, where no further binding occurred; the corrected heat changes were plotted against the molar ratio of titrant versus titrand. The values for association constant (Ka) value were determined by fitting the data with a one-site independent-binding model. At most cases, the binding stoichiometry (N) number was fixed to 1 since it is a known parameter, which can restrain the data fitting and achieve more accurate results. The dissociation constant Kd = 1/Ka.
(§7) Supplementary Figure 1. ITC measurements. ITC measurements were performed at 25 °C as described in Methods. (a) Binding thermography. For all tests, ligands and proteins are buffer- […]
(§8) (1 picture or pasted object on this page, not shown here) […]
(§9) matched. For melibiose binding measurements, a solution of 80 mM or 10 mM in the absence or presence of NaCl at 100 mM, was injected into the ITC sample cell containing the WT MelBSt at 80 μM without or with 100 mM NaCl, respectively. With the D59C mutant, […] was used. For α-NPG binding measurements, 0.5 mM or 0.4 mM solution was used to titrate the WT or D59C mutant at 50 μM in the absence or presence or 100 mM NaCl, respectively. For the Na+ or Li+ binding measurements, 5 mM or 2 mM solution was used to titrate WT MelBSt at 80 μM without or with 50 mM melibiose, respectively; 40 mM solutions was used to titrate the D59C mutant. (b) binding isotherm. Curve fit was carried out with a one-site independent-binding model included in the NanoAnalyze software (version 3.6.0).

The target in assay [4] is T3, D59C MelBSt. Kind of assay: biochemical. The class given is binding. The note with it: even with increased concentration or in the presence of melibiose; Kd not determinable. How it is done:
as §6, §7, §8, §9

The target of assay [5] is T1, WT MelBSt. The note with it: ITC 25 °C, data from publication or averaged with more tests, read-out: Kd, Na+ binding, cited from earlier work.

Several values for one entry are separate records, joined by “and”; a condition that tells them apart may be missing. Equal entries are not always repeated. Where two headings read alike, the source gives them in different places.

T3 sequence (P30878 whole entry D59C): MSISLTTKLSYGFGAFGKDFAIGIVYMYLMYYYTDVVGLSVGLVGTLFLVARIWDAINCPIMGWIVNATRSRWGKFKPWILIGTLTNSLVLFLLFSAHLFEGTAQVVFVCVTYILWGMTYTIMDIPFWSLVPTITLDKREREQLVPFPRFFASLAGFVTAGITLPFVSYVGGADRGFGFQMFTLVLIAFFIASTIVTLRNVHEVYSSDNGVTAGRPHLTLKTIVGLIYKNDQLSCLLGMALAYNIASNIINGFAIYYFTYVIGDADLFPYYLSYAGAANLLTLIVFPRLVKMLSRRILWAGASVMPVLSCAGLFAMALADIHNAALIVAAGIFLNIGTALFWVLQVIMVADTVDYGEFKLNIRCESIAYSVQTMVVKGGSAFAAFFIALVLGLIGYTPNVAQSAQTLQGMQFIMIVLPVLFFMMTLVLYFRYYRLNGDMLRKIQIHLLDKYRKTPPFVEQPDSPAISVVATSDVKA
T1 sequence (P30878 whole entry): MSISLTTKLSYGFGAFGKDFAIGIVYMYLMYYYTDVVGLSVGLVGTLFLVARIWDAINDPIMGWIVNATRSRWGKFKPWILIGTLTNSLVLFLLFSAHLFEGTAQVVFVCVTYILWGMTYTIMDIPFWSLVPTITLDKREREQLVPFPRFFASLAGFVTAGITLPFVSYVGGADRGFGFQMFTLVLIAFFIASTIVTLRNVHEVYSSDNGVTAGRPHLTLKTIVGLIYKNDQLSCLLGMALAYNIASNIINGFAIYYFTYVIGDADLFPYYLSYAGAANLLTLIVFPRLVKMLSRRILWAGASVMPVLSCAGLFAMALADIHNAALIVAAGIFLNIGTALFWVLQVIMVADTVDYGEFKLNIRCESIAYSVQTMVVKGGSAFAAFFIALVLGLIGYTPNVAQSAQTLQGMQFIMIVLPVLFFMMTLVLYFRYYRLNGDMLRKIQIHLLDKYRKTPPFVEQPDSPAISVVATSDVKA

With `CCCCCCCCCCCCO[C@@H]1O[C@H](CO)[C@@H](O[C@H]2O[C@H](CO)[C@@H](O)[C@H](O)[C@H]2O)[C@H](O)[C@H]1O` [DDM, dodecyl-β-D-maltopyranoside], the “effect on Trp→D2G FRET of D2G-bound protein (displacement)” value on WT MelBSt [1] is on record as “only showed a dilution effect similar to the addition of water”.

As a reminder, the IC50 is the point on the concentration scale where inhibition reaches its midpoint. `CCCCCCCCCCCCOC1OC(COC2OC(CO)C(O)C(O)C2O)C(O)C(O)C1O` [DDMB, dodecyl-β-D-melibioside]: on D59A MelBSt, the “ligand binding by Trp→D2G FRET” value is listed as “binds”. In addition, the IC50 was 26.1 ± 5.46 µM at WT MelBSt [1] (Apo); 4.79 ± 0.28 µM on WT MelBSt [1] (Na+ (100 mM)); 20 µM and 20.2 µM on D59C MelBSt [2] (Apo); 23.6 ± 3.9 µM on D59C MelBSt [2] (Na+ (100 mM)). In addition, the “effect on Trp→D2G FRET of D2G-bound protein (displacement)” value at WT MelBSt [1] is given as “large decrease in fluorescent intensity”. Also, the “decrease of IC50 in the presence of Na+” value on WT MelBSt [1] (apo vs Na+) is on record as 5 fold.

`[Li+]` [Li^+]: the Kd on WT MelBSt [3] (Apo, ITC 25 °C, read-out: Kd, Li+ binding) was 400 ± 100 µM; at WT MelBSt [3] (Melibiose (50 mM), ITC 25 °C, read-out: Kd, Li+ binding), 70 ± 10 µM. On WT MelBSt [3] (Li+ binding, apo vs melibiose), the “decrease of Kd in the presence of melibiose” value turned out to be 6 fold. The “heat changes derived from cation binding (ITC)” value on D59C MelBSt [4] is on record as “quite small”.

Take `[Na+]` [Na^+]: at WT MelBSt [3] (Na+ binding, apo vs melibiose), the “cooperativity, change of Kd with melibiose” value worked out at 8 fold. Moreover, the Kd is 500 µM at WT MelBSt [3] (apo MelB, rebuttal letter, read-out: affinity of apo MelB); 680 ± 30 µM on WT MelBSt [5] (Apo); 80 ± 10 µM at WT MelBSt [5] (Melibiose (50 mM)). The “heat changes derived from cation binding (ITC)” value on D59C MelBSt [4] is “quite small”.

As to `CCCCCCCCCCCO[C@@H]1O[C@H](CO)[C@@H](O[C@H]2O[C@H](CO)[C@@H](O)[C@H](O)[C@H]2O)[C@H](O)[C@H]1O` [UDM, undecyl-β-D-maltopyranoside], the “effect on Trp→D2G FRET of D2G-bound protein (displacement)” value at WT MelBSt [1] is listed as “only showed a dilution effect similar to the addition of water”.

Values taken from article PMC8329300, “X-ray crystallography reveals molecular recognition mechanism for sugar binding in a melibiose transporter MelB” (Communications Biology, 2021).
